Experiments:
NIH-3T3 cells = experiment: PDGF-induced circular dorsal ruffle (CDR) formation; assay type: cell-based; details: 0-3 μM for 1 h, PDGF for 10 min
[1] = tested on: Vav3−/− cells expressing p190-BCR-ABL; experiment: Cell cycle analysis; assay type: cell-based, murine; details: 3 μM, 20 h
Method: (§1) FIG. 14: IODVA1 targets Vav3 in vitro and in vivo. (A) Ba/F3 cells expressing empty vector Mieg3 or p190-BCR-ABL1 were treated with vehicle control or IODVA1 (IO1, 3 μM) for 30 min and incubated with GST-Rac and glutathione beads. Beads were washed and the protein complexes were separated on SDS-PAGE and immunoblotted for pVav3. Input Vav3 was used as control. (B) Binding affinity (Kd) between IODVA1 and Vav3 (green), LARG (brown), and RacGDP (blue). […] Error bars=SD; N=3. (C) Quantification of the average number of colonies made by bone marrow wild-type (black) and Vav3^−/− (lilac) p190-BCR-ABL1 leukemic cells treated with vehicle control or IODVA1 (IO1, 1 and 3 μM) (* p≤0.05; ** p≤0.01; *** p≤0.001; ns, not significant). (D) Representative histogram data of the cell cycle analysis of wild-type (black and grey bars) and Vav3^−/− (dark and light lilac) bone marrow cells expressing p190-BCR-ABL and treated with vehicle control or IODVA1 (IO1, 3 μM) for 20 h. (E) Quantification by densitometry of the pVav3 band from FIG. 14A. […]
Cell cycle was analyzed by using in vitro incorporation of 5-Bromo-2-deoxyuridine using Brdu Flow kit (BD Pharmingen, Cat #552598). […] DNAse treatment was done according to the instructions and stained with anti BrdU and apoptosis was analyzed by 7-AAD staining through flow cytometry analysis.

[2] = tested on: wild-type murine BM leukemic cells expressing p190-BCR-ABL; experiment: Colony formation assay (CFU-proB); assay type: cell-based
Method: as §1, with “(D) Representative histogram data of the cell cycle analysis of wild-type (black and grey bars) and Vav3^−/− (dark and light lilac) bone marrow cells expressing p190-BCR-ABL and treated with vehicle control or IODVA1 (IO1, 3 μM) for 20 h.” left out
B-cell lineage colony-forming units (CFU-proB) were quantified post 9-day culture of leukemic BM cells or sorted for p190-BCR-ABL-expressing B-cell progenitors in M3134 methylcellulose (StemCell Technologies) supplemented with 30% FBS (for mouse B lymphoid colony forming cells; StemCell Technologies), […] L-glutamine (Invitrogen), 1% penicillin-streptomycin (Invitrogen), 100 μM β-mercaptoethanol (Fisher-Scientific), 1% BSA (Sigma-Aldrich), 20 ng/mL of recombinant mouse IL-7 (PeproTech), and 100 ng/mL of recombinant mouse SCF (PeproTech).

[3] = tested on: empty vector (Mieg3)-expressing Ba/F3 cells; experiment: Cell survival/viability, trypan blue exclusion; assay type: cell-based, murine; details: IODVA1
[4] = tested on: pVav3 in MDA-MB-231 xenograft tumors; experiment: Immunohistochemistry of pVav3 in xenograft tumors; design: species or system mice; details: mouse, in vivo
Method: FIG. 16: IODVA1 decreases levels of pVav3 in in vitro and in vivo models of triple negative breast cancer. (A) Immunoblot and quantification of Vav3 protein in lysates of MDA-MB-231 triple negative breast cancer cells stably expressing scrambled or Vav3-targeting shRNAs. Viability of the MDA-MB-231 cells stably expressing shVav3 in the presence of IODVA1 (0-1 μM). Cells were grown in the presence of IODVA1 and counted by trypan blue exclusion at the indicated time points. (B) MDA-MB-231 cells were incubated with IODVA1 (3 μM) for 15 min and the levels of phosphorylated Vav3 (pY173) were assessed by immunoblotting. (C) Immunohistochemical staining of phosphorylated Vav3 in tissue derived from MDA-MB-231 xenografts treated with vehicle control or IODVA1.
To test if IODVA1 inhibits Vav3 in vivo, we took advantage of the MDA-MB-231 xenograft tumors we generated (FIG. 8A) and stained them by immunohistochemistry for pVav3.
Embedded tissues were cut into 4 μm sections then immunohistochemically stained using the Mouse on Mouse kit (MoM kit, Vector Laboratories). Tissue sections were subjected to sodium citrate antigen retrieval, pretreated with 0.3% hydrogen peroxide, blocked according to kit directions, and incubated with an antibody to phosphorylated Vav3 (1:200 dilution, Abcam) and HRP-conjugated anti-rabbit secondary (Vector Laboratories). […]

OC1(c2ccccn2)N=C(Nc2nc3ccccc3[nH]2)N=C1c1ccccn1 (stereo not drawn) [IODVA1, (Z)-2-((1H-benzo[d]imidazol-2-yl)imino)-4,5-di(pyridin-2-yl)-2,5-dihydro-1H-imidazol-5-ol]
CDR formation (NIH-3T3 cells): inhibited | cell cycle [1]: not affected | decrease in number of colonies (average) ([2]; 1 μM): 3 folds | decrease in number of colonies (average) ([2]; 3 μM): 7 folds | inhibition of survival [3]: not | pVav3 staining of tumor sections versus vehicle control [4]: significant decrease

From US11564913B2, “Compositions and methods for treating cancer” (Children's Hospital Medical Center, priority 2019, dated 2023)
